These are literature values, as cited in patent US8415392B2, “Combined use of L-carnitine, acetyle L-carnitine and propionyl L-carnitine for the treatment of oligoasthenoteratospermia” (Sigma-Tau Industrie Farmaceutiche Riunite, S.p.A., priority 2002, dated 2013).

Series [1] relates to patients with idiopathic oligoastheno-spermia. Conditions: acetyl L-carnitine.
Series [2] has as its system patients with idiopathic asthenospermia. The note with it: L-carnitine administration.
[3] abbreviates: Fertilität 4.1-4, 1988, L-carnitine therapy.

In the case of `CC(=O)O[C@H](CC(=O)[O-])C[N+](C)(C)C` [acetyl L-carnitine], in series [1], the sperm density result is recorded as “no effect” and the sperm motility result is on record as “progressive increase”.

For `C[N+](C)(C)C[C@H](O)CC(=O)[O-]` [L-carnitine], the “patients in whom sperm motility improved and sperm count increased” value in series [2] is 37 out of 47. Moreover, in the series on infertile patients (Andrologia 26:155-159, 1994, quantitative and qualitative), the sperm motility result is on record as “significant improvement”. Also, in the series on infertile patients (setting [3]), the “carnitine levels in the spermatozoa” value is listed as “increase”; the “sperm motility and sperm count” value is given as “increase”. Also, the sperm quality result in the series on infertile patients (Loumbakis et al. 1996, preliminary data) is “may have a positive effect”.
